Assay results taken from ChEMBL document CHEMBL5370554, “Discovery of a first-in-class Aurora A covalent inhibitor for the treatment of triple negative breast cancer” (Eur J Med Chem, 2023).

What was measured:
Aurora kinase A [1] = molecular target: T1, Aurora kinase A (Homo sapiens, UniProt O14965); assay: Inhibition of recombinant human Aurora A (1 to 403 residues) expressed in Escherichia coli using STK-substrate 2-biotin as substrate incubated for 15 mins in presence of 7.2uM ATP by HTRF assay
T1 sequence (O14965 whole entry): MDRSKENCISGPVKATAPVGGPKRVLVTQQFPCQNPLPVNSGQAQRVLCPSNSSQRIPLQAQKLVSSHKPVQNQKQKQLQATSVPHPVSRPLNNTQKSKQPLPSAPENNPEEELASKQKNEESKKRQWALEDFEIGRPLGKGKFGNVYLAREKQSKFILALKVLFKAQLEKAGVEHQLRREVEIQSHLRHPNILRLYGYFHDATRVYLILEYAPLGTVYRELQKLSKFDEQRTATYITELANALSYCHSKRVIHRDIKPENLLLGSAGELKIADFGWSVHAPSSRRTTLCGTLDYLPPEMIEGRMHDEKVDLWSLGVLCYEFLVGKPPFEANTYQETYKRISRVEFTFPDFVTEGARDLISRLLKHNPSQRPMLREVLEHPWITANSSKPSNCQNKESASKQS

Aurora kinase A [2] = molecular target: T1, Aurora kinase A; assay: Inhibition of recombinant human Aurora A (1 to 403 residues) expressed in Escherichia coli using STK-substrate 2-biotin as substrate incubated for 60 mins in presence of 2.4uM ATP by HTRF assay
MDA-MB-231 [3] = assay: Induction of apoptosis in human MDA-MB-231 cells assessed as late apoptotic cells at 2.5 uM incubated for 24 hrs by Annexin V-FITC staining based flow cytometry (Rvb= 6.90%); type: functional
MDA-MB-231 [4] = assay: Antitumor activity against human MDA-MB-231 cells xenografted in BALB/c nude mouse assessed as tumor growth inhibition at 15 mg/kg,ip every 2days for 20 days; type: functional; settings: MDA-MB-231, 480 h, time 20 day, read-out: TGI
[5] = Toxicity in BALB/c nude mouse xenografted with human MDA-MB-231 cells assessed as inflammatory cell infiltration in heart at 15 mg/kg,ip every 2days for 20 days by Hematoxylin and Eosin staining based microscopy; type: organism-based; settings: in vivo, 480 h, time 20 day

IC50 (Aurora kinase A [1]): 4.36 nM
IC50 (Aurora kinase A [2]): 3.91 nM
SMILES: C=CC(=O)Nc1ccc(-c2nc(Nc3cc(C)[nH]n3)c3ccc(N4CCN(C)CC4)cc3n2)cc1
Activity (MDA-MB-231 [3]): 21%
inhibition in vivo at 15 mg/kg (MDA-MB-231 [4]): 32.3%
Activity [5]: Non-Toxic
